Where two headings read alike, the source gives them in different places.
Tests used:
[1] = tested on: HeLa (cervical cancer cell line); assay: MTT cell viability assay, HeLa; type: cell-based; conditions: Homo sapiens, 48 h, read-out: Antiproliferative Activity IC50 ± SEM, HeLa
Description: (§1) The tested cells were obtained from Shanghai Institute of Biochemistry and Cell Biology of the Chinese Academy of Sciences (Shanghai, China). HeLa and Hep G2 cell lines were cultured in Dulbecco’s modified Eagle’s medium (DMEM; gibco, Life Technologies, Carlsbad, CA, USA) supplemented with 10% fetal bovine serum (FBS; Biological Industries), 100 U/mL penicillin-streptomycin (PS; gibco, Life Technologies, Carlsbad, CA, USA). MCF-7 and A549 cell lines were maintained in RPMI-1640 media (gibco, Life Technologies, Carlsbad, CA, USA) supplemented with 10% FBS and 100 U/mL PS. FaDu cell lines were cultured in minimum essential medium (MEM; Gibco, Life Technologies, Carlsbad, CA, USA) supplemented with 10% FBS and 100 U/mL PS. MCF 10A cell lines were maintained in Mammary MEGM kit (Lonza/Clonetics) supplemented with 100 ng/mL cholera toxin (Sigma, Shanghai, China). Cell lines were grown at 37 °C in a humidified atmosphere of 5% CO2.
(§2) The growth-inhibitory effects against HeLa, Hep G2, MCF-7, FaDu, and A549 cancer cells and normal cell lines MCF 10A were determined by MTT assay. […] Cells were seeded in 96 well plates at a density of 1 × 10^4 cells per well and incubated for 24 h at 37 °C in a humidified atmosphere of 5% CO2. The cells were then incubated with various concentrations of drugs for 48 h in a 5% CO2 incubator at 37 °C. After treatment with 1 mg/mL 3-(4,5-dimethylthiazol-2-yl)-2,5-diphenyltetrazolium bromide (MTT) solution for 4 h, the formazan crystals were dissolved in 100 µL DMSO in each well. Plates were read on a microplate reader (Thermo Varioskan Flash 3001) at 490 nm. The experiment was performed in triplicate. The inhibitory concentration at 50% (IC50) was calculated based on concentration-inhibition relationships via regression using SPSS software (Version 17.0).

[2] = tested on: Hep G2 (hepatocarcinoma cell line); assay: MTT cell viability assay, Hep G2; type: cell-based; conditions: Homo sapiens, HepG2, 48 h, read-out: Antiproliferative Activity IC50 ± SEM, Hep G2
Description: as §1, §2

[3] = tested on: MCF-7 (breast cancer cell line); assay: MTT cell viability assay, MCF-7; type: cell-based; conditions: Homo sapiens, MCF7, 48 h, read-out: Antiproliferative Activity IC50 ± SEM, MCF-7
Description: as §1, §2

[4] = tested on: FaDu (head and neck squamous carcinoma cell line); assay: MTT cell viability assay, FaDu; type: cell-based, human; conditions: for IC50: 48 h, MTT; for SI: selectivity index: SI = IC50 (MCF 10A)/IC50 (FaDu)
Description: as §1, §2

[5] = tested on: A549 (epithelial cancer cell line); assay: MTT cell viability assay, A549; type: cell-based; conditions: Homo sapiens, 48 h, read-out: Antiproliferative Activity IC50 ± SEM, A549
Description: as §1, §2

[6] = tested on: MCF 10A (normal mammary epithelial cell); assay: MTT cell viability assay, MCF 10A; type: cell-based; conditions: Homo sapiens, 48 h, normal cells, read-out: Antiproliferative Activity IC50 ± SEM, MCF 10A
[7] = Homo sapiens, FaDu, read-out: Antiproliferative Activity IC50 ± SEM, FaDu
[8] = read-out: Antiproliferative Activity IC50 ± SEM, FaDu

Row | SMILES | IC50 [1] [µM] | IC50 [2] [µM] | IC50 [3] [µM] | IC50 [4, 7] [nM] | SI: selectivity index [4] | IC50 [5] [µM] | IC50 [6] [µM] | IC50 ([4]; Homo sapiens, FaDu, values in nM, read-out: IC50 in FaDu cells) [nM] | IC50 [4, 8] [nM]
1 | COc1ccc(/C=C/C(=O)NCCCCCCCCCCNC(=O)/C=C/c2ccc(OC)c(OC)c2)cc1OC [Compound 27e, (2E,2′E)-N,N′-(Decane-1,10-Diyl)Bis(3-(3,4-Dimethoxyphenyl)Acrylamide)] | > 20 | > 20 | > 20 | 4620 ± 539 | >4.33 | > 20 | > 20 |  | 
2 | COc1cc(/C=C/C(=O)NCCCCCCCCCCNC(=O)/C=C/c2cc(OC)c(O)c(OC)c2)cc(OC)c1O [Compound 28e, (2E,2′E)-N,N′-(Decane-1,10-Diyl)Bis(3-(4-Hydroxy-3,5-Dimethoxyphenyl)Acrylamide)] | > 20 | > 20 | > 20 | > 20000 |  | > 20 | > 20 |  | 
3 | Cc1nc(C)c(C(=O)NCCCCCCCCCCCCNC(=O)c2nc(C)c(C)nc2C)nc1C [Compound 8f, N,N′-(Dodecane-1,12-Diyl)Bis(3,5,6-Trimethylpyrazine-2-Carboxamide)] | 4.96 ± 1.62 | > 20 | 0.158 ± 0.009 | 174 ± 10 | 0.29 | 2.46 ± 0.05 | 0.051 ± 0.021 |  | 
4 | O=C(/C=C/c1ccccc1)OCCCCCCCCCCCCOC(=O)/C=C/c1ccccc1 [Compound 9i, Dodecane-1,12-Diyl (2E,2′E)-Bis(3-Phenylacrylate)] | > 20 | > 20 | > 20 | > 20000 |  | > 20 | > 20 |  | 
5 | O=C(NCCCCCCCCCCNC(=O)c1cc2ccccc2s1)c1cc2ccccc2s1 [Compound 22e, N,N′-(Decane-1,10-Diyl)Bis(Benzo[b]Thiophene-2-Carboxamide)] | > 20 | > 20 | > 20 |  | >1000 | > 20 | > 20 |  | 
6 | COc1ccc(C(=O)NCCCCCCCCCCNC(=O)c2ccc(OC)c(OC)c2OC)c(OC)c1OC [Compound 35e, N,N′-(Decane-1,10-Diyl)Bis(2,3,4-Trimethoxybenzamide)] | > 20 | > 20 | > 20 | > 20000 |  | > 20 | > 20 |  | 
7 | Cc1nc(C)c(C(=O)NCCCCCCNC(=O)c2nc(C)c(C)nc2C)nc1C [Compound 8c, N,N′-(Hexane-1,6-Diyl)Bis(3,5,6-Trimethylpyrazine-2-Carboxamide)] | > 100 | > 100 | > 100 | 80400 ± 1360 |  | > 100 | 46.6 ± 0.65 |  | 
8 | COc1cc(/C=C/C(=O)NCCCCCCCCCCNC(=O)/C=C/c2cc(OC)c(OC)c(OC)c2)cc(OC)c1OC [Compound 29e, (2E,2′E)-N,N′-(Decane-1,10-Diyl)Bis(3-(3,4,5-Trimethoxyphenyl)Acrylamide)] | > 20 | > 20 | > 20 | 5070 ± 461 | >3.95 | > 20 | > 20 |  | 
9 | O=C(NCCCCCCCCCCNC(=O)c1ccccn1)c1ccccn1 [Compound 15e, N,N′-(Decane-1,10-Diyl)Dipicolinamide] | 37.7 ± 4.32 | 26.3 ± 5.36 | 21.5 ± 1.47 | 8850 ± 450 | 6.18 | 23.08 ± 0.12 | 54.6 ± 5.92 |  | 
10 | Cc1nc(C)c(C(=O)NCCCNC(=O)c2nc(C)c(C)nc2C)nc1C [Compound 8a, N,N′-(Propane-1,3-Diyl)Bis(3,5,6-Trimethylpyrazine-2-Carboxamide)] | > 100 | > 100 | > 100 | > 100000 |  | > 100 | > 100 |  | 
11 | O=C(NCCCCCCCCCCNC(=O)c1cc2ccccc2o1)c1cc2ccccc2o1 [Compound 21e, N,N′-(Decane-1,10-Diyl)Bis(Benzofuran-2-Carboxamide)] | > 20 | > 20 | > 20 | < 1000 | >30.08 | > 20 | > 20 | 697 | 665 ± 28
12 | Cc1nc(C)c(C)nc1C [TMP, 2,3,5,6-tetramethylpyrazine, reference compound] | > 100 | > 100 | > 100 | > 100000 |  | > 100 | > 100 |  | 
13 | O=C(/C=C/c1ccccc1)OCCCCCCCCOC(=O)/C=C/c1ccccc1 [Compound 9g, Octane-1,8-Diyl (2E,2′E)-Bis(3-Phenylacrylate)] | > 20 | > 20 | > 20 | > 20000 |  | > 20 | > 20 |  | 
14 | O=C(NCCCCCCCCCCNC(=O)c1cnccn1)c1cnccn1 [Compound 16e, N,N′-(Decane-1,10-Diyl)Bis(Pyrazine-2-Carboxamide)] | > 100 | > 100 | > 100 | 88100 ± 1370 |  | > 100 | > 100 |  | 
15 | Cc1nc(C)c(CN2CCN(Cc3nc(C)c(C)nc3C)CC2)nc1C [Compound 6h, 1,4-Bis((3,5,6-Trimethylpyrazin-2-yl)Methyl)Piperazine] | > 100 | > 100 | > 100 | > 100000 |  | > 100 | > 100 |  | 
16 | O=C(NCCCCCCCCCCNC(=O)c1ccc2ccccc2c1)c1ccc2ccccc2c1 [Compound 12e, N,N′-(Decane-1,10-Diyl)Bis(2-Naphthamide)] | > 100 | > 100 | > 100 | 1330 ± 70 | >75.19 | 8.77 ± 0.47 | > 100 |  | 
17 | Cn1cc(C(=O)NCCCCCCCCCCNC(=O)c2cn(C)c3ccccc23)c2ccccc21 [Compound 23e, N,N′-(Decane-1,10-Diyl)Bis(1-Methyl-1H-Indole-3-Carboxamide)] | > 20 | > 20 | > 20 | < 1000 | >31.35 | > 20 | > 20 |  | 638 ± 89
18 | O=C(/C=C/c1ccc(Cl)cc1)NCCCCCCCCCCNC(=O)/C=C/c1ccc(Cl)cc1 [Compound 25e, (2E,2′E)-N,N′-(Decane-1,10-Diyl)Bis(3-(4-Chlorophenyl)Acrylamide)] | > 20 | > 20 | > 20 |  | >357.14 | > 20 | > 20 |  | 
19 | COc1cc(C(=O)NCCCCCCCCCCNC(=O)c2cc(OC)c(OC)c(OC)c2)cc(OC)c1OC [Compound 34e, N,N′-(Decane-1,10-Diyl)Bis(3,4,5-Trimethoxybenzamide)] | > 20 | > 20 | > 20 | 5850 ± 408 | >3.42 | > 20 | > 20 |  | 
20 | O=C(/C=C/c1ccccc1)NCCCCCCCCCCCCNC(=O)/C=C/c1ccccc1 [Compound 9f, (2E,2′E)-N,N′-(Dodecane-1,12-Diyl)Bis(3-Phenylacrylamide)] | > 20 | > 20 | > 20 | 27 ± 2 | >740.74 | > 20 | > 20 |  | 

— article PMC6943434, “Novel Homo-Bivalent and Polyvalent Compounds Based on Ligustrazine and Heterocyclic Ring as Anticancer Agents” (Molecules, 2019)
